Measured values as given in patent US12539335B2, “Tricyclic polypeptide conjugated drug and use thereof” (CONJUSTAR (ZHUHAI) BIOLOGICS CO., LTD., priority 2021, dated 2026).
Counter-ions that a name gives are not always drawn. Starred links: 1 amine or outer side, 2 acyl side, 3 side chain; linkers in the order of their positions; H or OH if unused. Positions of bridges follow the written chain, without caps; N, C: chain ends. Non-standard residues stand in square brackets, D forms with d. Residues, ends and D or L forms follow the SMILES beside them. Chains are numbered I, II in the order given. *: point of attachment. TATA = O=C(CC[*:1])N1CN(C(=O)CC[*:2])CN(C(=O)CC[*:3])C1; Dolaproine = CO[C@@H]([C@@H]1CCCN1)[C@@H](C)C(=O)O; Dil = CC[C@H](C)[C@H](NC)[C@@H](CC(=O)O)OC; 1Nal = N[C@@H](Cc1cccc2ccccc12)C(=O)O; X2 = O=C(CCCC(=O)[*:2])NCCC(=O)[*:1]; PABC = O=C(OCc1ccc(N[*:1])cc1)[*:2]; X1 = C[C@@H](N*)[C@@H](O)c1ccccc1; Hyp = O=C(O)[C@@H]1C[C@@H](O)CN1; hArg = N=C(N)NCCCC[C@H](N)C(=O)O; Cit = NC(=O)NCCC[C@H](N)C(=O)O; Pen = CC(C)(S)[C@H](N)C(=O)O; NMeV = CN[C@H](C(=O)O)C(C)C; Sar = CNCC(=O)O

Assays:
Human Nectin-4 = biological target: T1, Human Nectin-4 (Homo sapiens, UniProt Q96NY8); experiment: Binding capacity to Nectin-4 protein (SPR, Biacore 8K)
T1 construct: purchased GE Healthcare 1006-72
T1 sequence (Q96NY8 32-510): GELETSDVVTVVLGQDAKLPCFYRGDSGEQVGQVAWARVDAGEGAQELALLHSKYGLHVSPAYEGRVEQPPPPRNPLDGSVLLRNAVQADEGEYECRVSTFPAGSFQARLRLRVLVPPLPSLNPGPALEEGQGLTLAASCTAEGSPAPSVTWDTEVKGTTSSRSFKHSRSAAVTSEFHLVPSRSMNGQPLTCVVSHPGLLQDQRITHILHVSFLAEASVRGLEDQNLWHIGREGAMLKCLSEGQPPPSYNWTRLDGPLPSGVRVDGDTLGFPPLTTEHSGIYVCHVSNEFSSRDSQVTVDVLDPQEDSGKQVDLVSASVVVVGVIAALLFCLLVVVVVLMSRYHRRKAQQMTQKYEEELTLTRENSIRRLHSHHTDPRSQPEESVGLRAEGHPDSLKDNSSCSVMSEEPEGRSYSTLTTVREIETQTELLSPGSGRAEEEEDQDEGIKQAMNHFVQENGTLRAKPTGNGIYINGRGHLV
Experimental: Test Example 1. Binding Capacity Test of the Compounds of the Present Invention to Nectin-4 Protein
To detect the affinity of the compound to be tested to the target protein Nectin-4 using the SPR method.
• Biacore 8K (GE Healthcare) • 96-well Plate (Cat #650101, greiner bio-one) • CM5 chip (Cat #BR-1005-30, GE Healthcare) • Amine Coupling Kit (Cat #BR-1000-50, GE Healthcare) • EDC • NHS • 1 M ethanolamine • 10 mM sodium acetate pH 4.5 (Cat #BR-1003-50, GE Healthcare) • DMSO (Cat #D4540, Sigma) • P20 (Cat #BR-1000-54, GE Healthcare) • PBS (Cat #BR-1006-72, GE Healthcare) • Nectin-4 (Cat #1006-72, GE Healthcare) 3. Experimental Protocol
In this experiment, the amino coupling method was used. The target protein Nectin-4 was directly immobilized on the CM5 chip using Biacore 8K. […] The final data were subjected to Kinetics fitting analysis based on a 1:1 model using Biacore Insight Evaluation Software (V 2.0.15.12933).
1) Preparation of the buffer: 10 mM PBS, pH 7.4, 137 mM NaCl, 2.7 mM KCl, 5% DMSO, and 0.05% P20.
2) Activation of the CM5 chip: The CM5 chip was activated with 400 mM EDC and 100 mM NHS at a flow rate of 10 μL/min for 420 seconds.
3) Coupling of the target protein: The target protein was diluted to 10 μg/mL with 10 mM sodium acetate (pH 4.5) and coupled at a flow rate of 10 μL/min for 284 s. The 1 #, 2 #, and 3 #channels on the chip were used in the experiment, and the coupling results were 1639.9RU, 1747.8RU, and 1702.2RU, respectively.
4) Blocking of the CM5 chip: The CM5 chip was blocked with 1 M ethanolamine at a flow rate of 10 μL/min for 420 seconds.
5) Analyte concentration: The compound to be tested was diluted with the buffer. The compound to be tested was diluted from 100 nM to 0.78 nM in a 2-fold gradient.
6) Sample injection analysis: Each concentration of the working solution of the compound to be tested corresponded to one cycle, with a flow rate of 30 μL/min for binding for 180 seconds and dissociating for 180 seconds. The last cycle was a 5% DMSO solvent correction cycle.
7) All results were subjected to kinetics fitting analysis based on a 1:1 model. […]

MDA-MB-468 cells = experiment: In vitro anti-proliferative activity, CellTiter-Glo, MDA-MB-468; assay type: cell-based, Human; details: MDA-MB-468, 72 h
Experimental: Test Example 2: In Vitro Anti-Proliferative Activity of the Compounds of the Present Invention on Nci-H292 and Mda-Mb-468 Cells
To investigate the effect of the compounds of the present invention on inhibiting cell proliferation by detecting the effect of the compounds on cell activity in vitro in tumor cell lines MDA-MB-468 and NCI-H292.
The tumor cell lines were cultured in a 37° C., no CO2 incubator and a 37° C., 5% CO2 incubator according to the culture conditions shown in Table 8, respectively. The cells were periodically passaged, and cells in a logarithmic growth phase were taken for plating.
Cells in a logarithmic growth phase were harvested and centrifuged at 1000 rpm for 3 min at room temperature. The supernatant was discarded, and the cells were resuspended in 5 mL of a culture medium. Then, 20 μL of the cell suspension was pipetted and mixed with trypan blue at 1:1 for staining for 3 min to detect cell viability and to count viable cells. The cell density was adjusted to 3000 cells/well. Then, 90 μL of the cell suspension was added to each culture plate well, and a cell-free culture medium was added to blank control wells. The culture plate was incubated overnight in a 37° C., no CO2, and 100% relative humidity incubator and a 37° C., 5% CO2, and 100% relative humidity incubator, respectively.
Preparation of a 400× compound stock plate: The compound to be tested was gradient diluted with DMSO from the highest to the lowest concentration.
Preparation of a 10× compound working solution: 78 μL of a cell culture medium was added to a V-bottomed 96-well plate, and 2 μL of the compound solution of each concentration was pipetted from the 400× compound stock plate into the cell culture medium in the 96-well plate. Then, 2 μL of DMSO was added to vehicle control and blank control. […]
The detection was performed according to the instructions of the Promega CellTiter-Glo Luminescent Cell Viability Assay kit (Promega-G7573). The luminescence signal was detected on the En Vision® Multi-mode Plate Reader (En Vision 2104-10). […]

CC[C@H](C)[C@@H]([C@@H](CC(=O)N1CCC[C@H]1[C@H](OC)[C@@H](C)C(=O)N[C@H](C)[C@@H](O)c1ccccc1)OC)N(C)C(=O)[C@@H](NC(=O)[C@H](C(C)C)N(C)C(=O)OCc1ccc(NC(=O)[C@H](CCCNC(N)=O)NC(=O)[C@@H](NC(=O)CCCC(=O)NCCC(=O)N(C)CC(=O)N(C)CC(=O)N(C)CC(=O)N(C)CC(=O)N(C)CC(=O)N(C)CC(=O)N(C)CC(=O)N(C)CC(=O)N(C)CC(=O)N(C)CC(=O)N[C@H]2CCCCNC(=O)C[C@@H](C(=O)N[C@H]3CSCCC(=O)N4CN5CN(C4)C(=O)CCSC(C)(C)[C@H](NC(=O)[C@@H](CC(=O)O)NC(=O)[C@H](Cc4cccc6ccccc46)NC(=O)[C@@H]4CCCN4C3=O)C(=O)N[C@@H](CCSC)C(=O)N[C@@H](CCCCNC(=N)N)C(=O)N[C@@H](CC(=O)O)C(=O)N[C@@H](Cc3c[nH]c4ccccc34)C(=O)N[C@@H](CO)C(=O)N[C@@H]([C@@H](C)O)C(=O)N3CCC[C@H]3C(=O)N3C[C@H](O)C[C@H]3C(=O)N[C@@H](Cc3c[nH]c4ccccc34)C(=O)N[C@H](C(N)=O)CSCCC5=O)NC(=O)CN(C)C2=O)C(C)C)cc1)C(C)C [Acetate salt of PDC_2] (I: [Sar][Sar][Sar][Sar][Sar][Sar][Sar][Sar][Sar][Sar]K[Sar]DCP[1Nal][dD][Pen]M[hArg]DWSTP[Hyp]WC-NH2 / II: V[Cit][PABC][NMeV]V[Dil][Dolaproine]-X1; lactam I:11-I:13; linker I:14-I:18-I:28 via TATA; linker I:N-II:N via X2)
Kd (Human Nectin-4): 0.43 nM
IC50 (MDA-MB-468 cells): 32.3 nM
Maximum inhibition rate (MDA-MB-468 cells): 86.28%
Minimum inhibition rate (MDA-MB-468 cells): −10.28%
